Test results reported in patent US7846970B2, “Hydroxycitric acid derivatives and skin external preparations containing the same” (Showa Denko K.K., priority 2004, dated 2010).
One block for each compound: values may come before it.

Key:
[1] = tested on: Human white preadipocytes; test: Cell survival rate (Test Example 6); assay type: cell-based; settings: 4 days, 50 μM
Procedure: (§1) After differentiation into adipocytes had been observed, the culture medium was replaced with one that contained 50 μM of (b), or 100 μM of (i), or 50 μM of (j), or 50 μM and 100 μM of (b) and (i) respectively, or 50 μM and 50 μM of (b) and (j) respectively. The incubation was continued for another 4 days. The control was incubated using a culture medium that contained no test articles.

[2] = tested on: Human white preadipocytes; test: Test (2) of use in combination with caffeine and the like, triglyceride accumulation; assay type: cell-based; settings: 50 μM, 4 days
Procedure: as §1

[3] = tested on: Human white preadipocytes
Procedure: (§4) Human white preadipocytes (available from Zen-Bio Inc.) were disseminated in two T-25 flasks and were incubated at 37° C. and 5% CO2 using a white preadipocyte culture medium (PM-1, available from Zen-Bio Inc.). After several days, microscopic observation confirmed that the cells had been confluent, and the medium was replaced with a human white preadipocyte differentiation medium (DM-1, available from Zen-Bio Inc.). After three days, the differentiation medium was changed to a white adipocyte medium (AM-1, available from Zen-Bio Inc.). Incubation was continued while renewing half of the white adipocyte medium every three days.
(§5) After differentiation into adipocytes had been observed, the culture media in the flasks were each replaced with one that contained 1 mM of the test article (a) or 0.05 mM of the test article (b). The incubation was continued for another 5 days.
(§6) After 5 days of incubation, the cells were released from the flask bottom by adding trypsin and were collected by centrifugation (at 1,000 rpm for 5 minutes). The cells collected were washed two times with Dulbecco's PBS (−), and were transferred to 1.5 ml tubes, followed by freezing and thawing. […]
(§7) The test article in the extract was determined by LC/MS, and the protein in the extract was determined by the Lowry method as described in Test Example 1.

[4] = tested on: Human white preadipocytes; test: Cell survival rate, alamar blue (Test Example 3); assay type: cell-based; settings: 4 days
Procedure: (§2) After differentiation of most cells into adipocytes had been observed with a microscope, the culture medium was replaced with one that contained 100 μM or 1 mM of the test article (a), or 10 μM, 25 μM or 50 μM of the test article (b). The incubation was continued for another 4 days. The control was incubated using a culture medium that contained no test articles.
(§3) After 4 days of incubation, the cells were washed three times with Dulbecco's PBS (−). The triglyceride accumulated in the cells was determined by oil red staining. The cell survival rate was measured by a calorimetric method (570 nm) using alamar blue reagent (manufactured by Molecular Probe).

[5] = tested on: Human white preadipocytes; test: Triglyceride accumulation test (2), oil red staining; assay type: cell-based; settings: 4 days
Procedure: as §2, §3

[6] = tested on: Human white preadipocytes; test: Test for confirmation of breakdown of hydroxycitric acid derivative (amounts in cell extract, LC/MS); settings: 1 mM test article, 5 days, human adipocytes
Procedure: as §4, §5, §6, §7

[7] = Skin permeation test (Test Example 1); assay type: in vitro ADME, minipig
Procedure: The above test articles, each 0.5% by mass, were dissolved separately in Dulbecco's PBS (−).
2-cm square skin pieces of minipig (Charles River Laboratories Inc. (United States of America)) were placed in the Netwell (manufactured by Corning Incorporated), and assay rings (Teflon® rings with a center opening) on which a silicon sealant had been applied were pressed and fixed to the epidermis of the skin. Subsequently, 2 ml of a skin culture medium (TOYOBO CO., LTD.) was added to a multiwell plate, and the Netwell was set such that skin lower portions would be soaked. Each of the test article solutions, 0.1 ml, was slowly poured into the opening of assay ring; when no leakage was confirmed, the units were sealed with multiplate seals and were allowed to stand in an incubator at 37° C. and 5% carbon dioxide.
After 4 hours, the test article solutions on the skin pieces were pipetted. The skin pieces were recovered from the Netwell, and distilled water in a washing bottle was poured thereover for washing. The assay rings were detached, and the central portions that had contacted with the solution were punched out with an 8 mm biopsy punch. The excised skin pieces were transferred to 1.5 ml tubes, and 1 ml of 0.5% trypsin solution was added to each tube. The trypsin solution was caused to permeate the skin piece for a day and a night at 4° C.
Next day, the trypsin solution was removed, and the skin pieces were washed three times each with 1 ml of distilled water and were heated in an incubator at 37° C. for 5 minutes, resulting in release of the epidermis. The epidermis that had been released and been floating was peeled with tweezers to separate the skin piece into the epidermis and the dermis. The epidermis and dermis were separately transferred to new 1.5 ml tubes and were heated in an incubator at 37° C. for 30 minutes.
Thereafter, the epidermis and the dermis were fed with 0.1 ml and 0.5 ml of distilled water, respectively, followed by freezing and thawing. […] Thus, a tissue extract was obtained.
400 μl of the reagent 4 was added to a sample tube containing 20 μl of the sample solution or the standard sample solution, followed by mixing. The mixture was allowed to stand at room temperature for at least 15 minutes. Thereafter, 40 μl of the reagent 3 was added and mixed together, and the mixture was allowed to stand at room temperature for at least 30 minutes. The absorbance at 750 nm was measured with a spectrophotometer, and the protein concentration in the sample solution was determined using a calibration curve obtained with the standard sample.

[8] = tested on: Mouse 3T3-F442A cells; test: Triglyceride accumulation test (1), oil red staining; assay type: cell-based; settings: 100 μM, 4 days, differentiated 3T3-F442A adipocytes
Procedure: Mouse 3T3-F442A cells (available from DAINIPPON PHARMACEUTICAL CO., LTD.) were disseminated on a 96-well microplate and were incubated at 37° C. and 5% CO2 over a period of 2 weeks using a DMEM culture medium (available from Invitrogen) containing 10% by mass of FCS.
as §2, with “of any one” for “or 1 mM”, “articles (a) to (c).” for “article (a), or 10 μM, 25 μM or 50 μM of the test article (b).”
After 4 days of incubation, the cells were washed three times with Dulbecco's PBS (−). The triglyceride accumulated in the cells was determined by oil red staining.

[9] = tested on: Mouse 3T3-F442A cells; test: Triglyceride accumulation test (3): lowest concentration at which TG/cell survival ratio is not more than 80; assay type: cell-based; settings: lowest tested concentration with TG/cell survival ratio not more than 80 (control 100); 4 days
Procedure: Likewise in Test Example 2, mouse 3T3-F442A cells (available from DAINIPPON PHARMACEUTICAL CO., LTD.) were disseminated on a 96-well microplate and were incubated at 37° C. and 5% CO2 over a period of 2 weeks using a DMEM culture medium (available from Invitrogen) containing 10% by mass of FCS.
After differentiation of most cells into adipocytes had been observed with a microscope, the culture medium was replaced with one that contained any one of the test articles (a), (b) and (d) to (h) in an amount of 40 μM, 50 μM, 100 μM, 150 μM, 200 μM, 300 μM, 400 μM, 500 μM or […]. The incubation was continued for another 4 days. The control was incubated using a culture medium that contained no test articles.
After 4 days of incubation, the cells were washed three times with Dulbecco's PBS (−). The triglyceride accumulated in the cells, and the cell survival rate were measured in similar manners as in Test Example 3.

[10] = tested on: Mouse 3T3-F442A cells; test: Test (1) of use in combination with caffeine, triglyceride accumulation; assay type: cell-based; settings: 0.05 mM (b) alone, which is the control (100%); 4 days
Procedure: Mouse 3T3-F442A cells were incubated in a similar manner as in Test Example 2. After differentiation into adipocytes had been observed, the culture medium was replaced with one that contained 0.05 mM and 0.1 mM of the test article (b) and the test article (i), respectively. The incubation was continued for another 4 days. The control was incubated using a culture medium that contained 0.05 mM of the test article (b).
After 4 days of incubation, the triglyceride accumulated in the cells was determined in a similar manner as in Test Example 2.

[11] = dermis, test article 0.5% by mass in Dulbecco's PBS (-), 0.1 ml, 4 hours, 37°C
[12] = epidermis, test article 0.5% by mass in Dulbecco's PBS (-), 0.1 ml, 4 hours, 37°C

Compound: C[N+](C)(C)C[C@H](O)CC(=O)[O-].Cl [(j), L-carnitine hydrochloride, reference compound]
Cell survival rate (% relative to control): 2 [1]: 102 % relative to control
(1/2) × 100 (triglyceride amount / cell survival rate) [2]: 91
Accumulated triglyceride amount (% relative to control): 1 [2]: 93 % relative to control

Compound: CCCCCCCCCCCCCCCC(=O)OC(CC(=O)O)(C(=O)O)C(O)C(=O)O (centres unmarked) [hydroxycitric acid-2-palmitate]
Breakdown within adipocytes (in words) [3]: broken down within adipocytes to generate hydroxycitric acid

Compound: Hydroxycitric acid calcium salt [(a), reference compound]
Cell survival rate (% relative to control): 2 ([4]; 100 μM): 88 % relative to control
Cell survival rate (% relative to control): 2 ([4]; 1 mM): 94 % relative to control
(1/2) × 100 (triglyceride amount / cell survival rate) ([5]; 100 μM): 98
Accumulated triglyceride amount (% relative to control): 1 ([5]; 100 μM): 86 % relative to control
(1/2) × 100 (triglyceride amount / cell survival rate) ([5]; 1 mM): 85
Accumulated triglyceride amount (% relative to control): 1 ([5]; 1 mM): 80 % relative to control
Determined value: amount of hydroxycitric acid in cell extract [6]: 0.6 nmol/mg protein
Determined value: amount of hydroxycitric acid in dermis [7, 11]: 0.2 nmol/mg skin protein
Determined value: amount of hydroxycitric acid in epidermis [7, 12]: 0.4 nmol/mg skin protein
Accumulated triglyceride amount (% relative to control) [8]: 98 % relative to control
Concentration for 20% reduction of TG amount relative to control [9]: 1e+06 µM

Compound: Hydroxycitric acid monomethyl ester-2-palmitate sodium salt [(c)]
Accumulated triglyceride amount (% relative to control) [8]: 84 % relative to control

Compound: Hydroxycitric acid-2-behenate sodium salt [(h)]
Concentration for 20% reduction of TG amount relative to control [9]: 40 µM

Compound: Hydroxycitric acid-2-caprate sodium salt [(e)]
Concentration for 20% reduction of TG amount relative to control [9]: 200 µM

Compound: Hydroxycitric acid-2-laurate sodium salt [(f)]
Concentration for 20% reduction of TG amount relative to control [9]: 150 µM

Compound: Hydroxycitric acid-2-myristate sodium salt [(g)]
Concentration for 20% reduction of TG amount relative to control [9]: 100 µM

Compound: Hydroxycitric acid-2-octanoate sodium salt [(d)]
Concentration for 20% reduction of TG amount relative to control [9]: 200 µM

Determined value: amount of hydroxycitric acid-2-palmitate in dermis [7, 11]: 3.8 nmol/mg skin protein
Determined value: amount of hydroxycitric acid-2-palmitate in epidermis [7, 12]: 3.4 nmol/mg skin protein
Compound: Hydroxycitric acid-2-palmitate sodium salt [(b)]
Cell survival rate (% relative to control): 2 ([4]; 10 μM): 100 % relative to control
Cell survival rate (% relative to control): 2 ([4]; 25 μM): 101 % relative to control
Cell survival rate (% relative to control): 2 ([4]; 50 μM): 98 % relative to control
(1/2) × 100 (triglyceride amount / cell survival rate) ([5]; 10 μM): 78
Accumulated triglyceride amount (% relative to control): 1 ([5]; 10 μM): 78 % relative to control
(1/2) × 100 (triglyceride amount / cell survival rate) ([5]; 25 μM): 71
Accumulated triglyceride amount (% relative to control): 1 ([5]; 25 μM): 72 % relative to control
(1/2) × 100 (triglyceride amount / cell survival rate) ([5]; 50 μM): 66
Accumulated triglyceride amount (% relative to control): 1 ([5]; 50 μM): 65 % relative to control
Accumulated triglyceride amount (% relative to control) [10]: 100 % relative to control
(1/2) × 100 (triglyceride amount / cell survival rate) [2]: 75
Accumulated triglyceride amount (% relative to control): 1 [2]: 75 % relative to control
Skin permeation (in words) ([7]; minipig skin, compared with (a)): can permeate the skin deeper into the dermis layer than hydroxycitric acid calcium salt (a)
Accumulated triglyceride amount (% relative to control) [8]: 52 % relative to control
Concentration for 20% reduction of TG amount relative to control [9]: 50 µM
